From patent publication US20230364063A1, “ORAL PHARMACEUTICAL COMPOSITION AND METHOD FOR PRODUCING SAME” (ARTham Therapeutics Inc., priority 2020, published 2023)
≈ marks a conversion by molar mass, not a printed value. Read-outs that look alike come from different tables or passages of the source. One block for each compound: values may come before it.

How the values were obtained:
[1] = pH-dependent dissolution profile (equilibrium solubility) of ART-001 in buffers pH 1 to 10, HPLC; type: physicochemical; conditions: for solubility: aqueous buffer, thermodynamic from solid, room temperature
Protocol: The dissolution profile of ART-001 in various pH environments was tested by the following procedure. Excess amounts of ART-001 were added to 50 mM phosphate buffer (pH 1, 2, 7, and 8), citrate buffer (pH 3, 4, 5, and 6), boric acid buffer (pH 9), and bicarbonate buffer (pH 10), with the pH adjusted variously in the range of from pH 1 to pH 10 with a 6N HCl or 10N sodium hydroxide solution, and stirred at room temperature. When the dissolved state reached equilibrium, a fixed amount of each sample was taken. After centrifugation at 1000 rpm for 10 minutes, the supernatant was collected and measured by HPLC. The pH at the beginning and end of dissolution were also measured and recorded.

advanced solid tumors = conditions: Phase I, patients with advanced solid tumors; cited from earlier work
[2] = healthy adults, cited from earlier work
[3] = cited from earlier work
[4] = cited from earlier work; remark: listed apart in the source
[5] = cited from earlier work; remark: listed apart in the source

- solubility ([1]; bicarbonate buffer, start pH 10.00, end pH 10.07, read-out: Solubility): 2.18 µg/mL (≈ 6 µM)
- solubility ([1]; boric acid buffer, start pH 9.00, end pH 9.16, read-out: Solubility): 1.3 µg/mL (≈ 3.58 µM)
- solubility ([1]; citrate buffer, start pH 3.17, end pH 3.33, read-out: Solubility): 36.8 µg/mL (≈ 101 µM)
- solubility ([1]; citrate buffer, start pH 4.00, end pH 4.19, read-out: Solubility): 5.7 µg/mL (≈ 15.7 µM)
- solubility ([1]; citrate buffer, start pH 5.03, end pH 5.2, read-out: Solubility): 1.7 µg/mL (≈ 4.68 µM)
- solubility ([1]; citrate buffer, start pH 5.95, end pH 6.11, read-out: Solubility): 1.3 µg/mL (≈ 3.58 µM)
- solubility ([1]; citrate, phosphate, boric acid and bicarbonate buffers, pH 6 or higher, read-out: solubility under high pH conditions): 1.3 µg/mL (≈ 3.58 µM)
- solubility under high pH conditions when the solubility under low pH conditions is considered to be 100% ([1]; pH 6 or higher vs pH 2.5 or lower): about 4%
- solubility ([1]; phosphate buffer, pH 2.5 or lower, read-out: solubility under low pH conditions): 312 to 10000 µg/mL (≈ 859 to 27500 µM)
- solubility ([1]; phosphate buffer, start pH 1.04, end pH 1.33, read-out: Solubility): 1140 µg/mL (≈ 3130 µM)
- solubility ([1]; phosphate buffer, start pH 2.09, end pH 2.56, read-out: Solubility): 312 µg/mL (≈ 859 µM)
- solubility ([1]; phosphate buffer, start pH 6.81, end pH 6.97, read-out: Solubility): 1.2 µg/mL (≈ 3.3 µM)
- solubility ([1]; phosphate buffer, start pH 8.15, end pH 8.3, read-out: Solubility): 1.3 µg/mL (≈ 3.58 µM)
SMILES: Nc1nc2cc(-c3ccc4ncc(C(=O)N5CCOCC5)n4c3)ccc2o1 [ART-001, Serabelisib]
- therapeutic efficacy (advanced solid tumors): limited therapeutic efficacy
- variability in pharmacokinetics (advanced solid tumors): high degree of variability
- absorption of ART-001 ([2]; co-administration of proton pump inhibitor (lansoprazole), stomach pH neutral): markedly decreased
- pharmacokinetic variability [2]: significant pharmacokinetic variability
- solubility in acidic solutions ([3]; acidic solutions): high solubility
- solubility in neutral to basic solutions ([3]; neutral to basic solutions): extremely low solubility

SMILES: Cc1nc(NC(=O)N2CCC[C@H]2C(N)=O)sc1-c1ccnc(C(C)(C)C(F)(F)F)c1 [alperisib, Alpelisib]
- solubility [4]: pH-dependent solubility
- pharmacokinetics in clinical studies [5]: variations in pharmacokinetics
